We go through 31 compounds from patent publication US20240390383A1, “DIOXAZINES AND THEIR USE IN TREATMENT OF GBA-RELATED DISEASES” (ZEVRA DENMARK A/S, priority 2021, published 2024).

The target in this test is T1, GCase (GBA) in human fibroblast cell line GM10915 harboring the L444P GBA mutation (Homo sapiens, UniProt P04062, L483P).
T1 construct: Human fibroblast cell line GM10915 harboring the L444P GBA mutation; host or cells: GM10915 human fibroblasts
T1 sequence (P04062 40-536 L483P): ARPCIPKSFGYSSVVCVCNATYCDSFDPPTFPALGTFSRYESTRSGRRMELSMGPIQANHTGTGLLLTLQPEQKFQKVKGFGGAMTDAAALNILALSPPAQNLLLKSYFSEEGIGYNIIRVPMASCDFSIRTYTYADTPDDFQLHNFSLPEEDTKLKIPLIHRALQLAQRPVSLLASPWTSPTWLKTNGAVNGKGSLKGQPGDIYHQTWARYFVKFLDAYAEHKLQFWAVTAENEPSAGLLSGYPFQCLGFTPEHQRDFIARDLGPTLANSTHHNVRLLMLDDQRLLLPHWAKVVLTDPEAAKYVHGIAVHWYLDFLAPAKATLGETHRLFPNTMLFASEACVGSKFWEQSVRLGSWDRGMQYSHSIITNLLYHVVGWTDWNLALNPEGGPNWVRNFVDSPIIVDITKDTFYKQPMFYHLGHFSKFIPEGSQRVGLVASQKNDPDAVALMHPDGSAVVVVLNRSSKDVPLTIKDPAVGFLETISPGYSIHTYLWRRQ
Nature of the test: GCase activity assay (4-MUG substrate, normalised to crystal violet staining) in L444P GBA fibroblasts. The test is classed as cell-based. The settings on record: 5 days exposure; for GBA EC1.5: concentration giving 150% GCase activity (1.5-fold induction), 8-point dose range; for Emax: maximum percent GCase activity relative to untreated cells in the dose range tested. The method in brief:
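Patient fibroblasts GM10915 (L444P GBA) exposed to compounds for five days over an 8-point range, with fresh dosing every 2–3 days. Intact-cell GCase measured with 2.5 mM 4-MUG at pH 4.0 for 23 h at 37 °C (ex/em 365/445 nm), normalised to crystal violet, as % of PBS basal; Emax is the maximum reached.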

Turning to `CC1ON=C(C2CCN(C(C)C)C2)OC1CN1CCCCC1` (racemic) [compound 621, rac-3-(1-isopropylpyrrolidin-3-yl)-6-methyl-5-(piperidin-1-ylmethyl)-5,6-dihydro-1,4,2-dioxazine], the “GBA EC1.5” value is 10 µM and the Emax (as a rule, the greatest response seen or fitted, relative to the assay's reference) is 276%.

Regarding `COC1CN(C)CC1C1=NOCC(CN2CCCCC2)O1` (racemic) [compound 821, rac-3-(4-methoxy-1-methylpyrrolidin-3-yl)-5-(piperidin-1-ylmethyl)-5,6-dihydro-1,4,2-dioxazine], the “GBA EC1.5” value was 29 µM and the Emax was found to be 213%.

`C1CCN(CC2CON=C(C34CCCN(CC3)C4)O2)CC1` (racemic) [compound 553, rac-3-(1-azabicyclo[3.2.1]octan-5-yl)-5-(piperidin-1-ylmethyl)-5,6-dihydro-1,4,2-dioxazine]: the “GBA EC1.5” value worked out at 4 µM and the Emax was determined as 341%.

Consider `CC1(C2=NOCC(CN3CCNC(C(F)(F)F)CC3)O2)CCNCC1` (racemic) [compound 500, rac-3-(4-methylpiperidin-4-yl)-5-((5-(trifluoromethyl)-1,4-diazepan-1-yl)methyl)-5,6-dihydro-1,4,2-dioxazine], for which the “GBA EC1.5” value is 14 µM and the Emax was 166%.

On to `CN1CC2(C1)CN(CC1CON=C(C3(C)CCNCC3)O1)C2` (centres unmarked) [compound 580], for which the “GBA EC1.5” value was determined as 50 µM and the Emax was 105%.

Take `Nc1ccc(N2CCCC(C3=NOCC(CN4CCCCC4)O3)C2)nc1` (centres unmarked) [compound 687]: the “GBA EC1.5” value turned out to be 50 µM and the Emax was determined as 110%.

`O=C1NCCC1C1=NOCC(CN2CCCCC2)O1` (centres unmarked) [compound 637]: the “GBA EC1.5” value is 50 µM and the maximal response (Emax) was 111%.

Regarding `NC(=O)N1CCCC(C2=NOCC(CN3CCCCC3)O2)C1` (centres unmarked) [compound 717], the “GBA EC1.5” value was found to be 50 µM and the Emax came to 111%.

As to `C1CCN(CC2CON=C(C3CN4CCC3CC4)O2)CC1` (racemic) [compound 644, rac-5-(piperidin-1-ylmethyl)-3-(quinuclidin-3-yl)-5,6-dihydro-1,4,2-dioxazine], the “GBA EC1.5” value was 5 µM and the Emax stood at 264%.

Regarding `CN1CC(C2=NOCC(CN3CCCCC3)N2)CC1=O` (centres unmarked) [compound 601], the “GBA EC1.5” value was 50 µM and the Emax was 111%.

In the case of `CN1C[C@@H]2CN(CC3CON=C(C4(C)CCNCC4)O3)C[C@@H]2C1` (some centres unmarked) [compound 592], the “GBA EC1.5” value turned out to be 50 µM and the Emax was determined as 110%.

With `c1cnn(C2(C3=NOCC(CN4CCCCC4)O3)CCNCC2)c1` (centres unmarked) [compound 848], the “GBA EC1.5” value was found to be 2 µM and the Emax turned out to be 311%.

`CN(C)CC1CON=C(C2CCN(C)C2)O1` (centres unmarked) [compound 605]: the “GBA EC1.5” value was found to be 45 µM and the Emax came to 148%.

With `OC1(C2=NOCC(CN3CCCCC3)O2)CCNCC1` (centres unmarked) [compound 650], the “GBA EC1.5” value was 50 µM and the Emax came to 141%.

As to `CC1(C2=NOCC(CN3CCC(F)(F)CC3)O2)CCNCC1` (racemic) [compound 673, rac-5-((4,4-difluoropiperidin-1-yl)methyl)-3-(4-methylpiperidin-4-yl)-5,6-dihydro-1,4,2-dioxazine], the “GBA EC1.5” value was 49 µM and the Emax turned out to be 151%.

As to `NC1CCC(C2=NOCC(CN3CCCCC3)O2)CC1` (racemic) [compound 611, rac-4-(5-(piperidin-1-ylmethyl)-5,6-dihydro-1,4,2-dioxazin-3-yl)cyclohexan-1-amine], the “GBA EC1.5” value turned out to be 26 µM and the Emax came to 299%.

For the compound `c1cncc(CNCCC2=NOCC(CN3CCCCC3)O2)c1` (racemic) [compound 797, rac-2-(5-(piperidin-1-ylmethyl)-5,6-dihydro-1,4,2-dioxazin-3-yl)-N-(pyridin-3-ylmethyl)ethan-1-amine], the “GBA EC1.5” value came to 46 µM and the Emax stood at 149%.

In the case of `c1cc2n(n1)CCC(C1=NOCC(CN3CCCCC3)O1)C2` (centres unmarked) [compound 656], the “GBA EC1.5” value was found to be 50 µM and the Emax turned out to be 123%.

As for `CN1C[C@@H](O)C[C@H](C2=NOCC(CN3CCCCC3)O2)C1` (relative stereo) [compound 724, rac-rel-(3R,5R)-1-methyl-5-(5-(piperidin-1-ylmethyl)-5,6-dihydro-1,4,2-dioxazin-3-yl)piperidin-3-ol], the “GBA EC1.5” value was 16 µM and the Emax amounted to 274%.

As to `CN1[C@@H]2CC[C@H]1CN(CC1CON=C(C3(C)CCNCC3)O1)C2` (some centres unmarked) [compound 603], the “GBA EC1.5” value was determined as 50 µM and the Emax worked out at 102%.

Regarding `CN(C)C(=O)[C@@]12CC[C@]1(C1=NOCC(CN3CCCCC3)O1)CNC2` (relative stereo) [compound 765, rac-rel-(1R,5S)—N,N-dimethyl-5-(5-(piperidin-1-ylmethyl)-5,6-dihydro-1,4,2-dioxazin-3-yl)-3-azabicyclo[3.2.0]heptane-1-carboxamide], the “GBA EC1.5” value came to 29 µM and the Emax stood at 151%.

Turning to `CN(C)C12CCC(C3=NOCC(CN4CCCCC4)O3)(CC1)CC2` (racemic) [compound 640, rac-N,N-dimethyl-4-(5-(piperidin-1-ylmethyl)-5,6-dihydro-1,4,2-dioxazin-3-yl)bicyclo[2.2.2]octan-1-amine], the “GBA EC1.5” value was 6 µM and the Emax was 183%.

Consider `CC(C)c1ccc(CC2(C3=NOCC(CN4CCCCC4)O3)CCNCC2)cn1` (centres unmarked) [compound 538], for which the “GBA EC1.5” value is 1 µM and the Emax amounted to 147%.

On to `FC(F)(F)CN1CCCC(C2=NOCC(CN3CCCCC3)O2)C1` (centres unmarked) [compound 570], for which the “GBA EC1.5” value came out at 50 µM and the Emax amounted to 107%.

In the case of `CC1(C2=NOCC(CN3CCCCC3)O2)CCCN1` (racemic) [compound 566, rac-3-(2-methylpyrrolidin-2-yl)-5-(piperidin-1-ylmethyl)-5,6-dihydro-1,4,2-dioxazine], the “GBA EC1.5” value came to 36 µM and the Emax turned out to be 164%.

`C1CCN(CC2CON=C(CC3CNCCO3)O2)CC1` (centres unmarked) [compound 863]: the “GBA EC1.5” value worked out at 6 µM and the Emax is 253%.

In the case of `Nc1ccc(N2CCC(C3=NOCC(CN4CCCCC4)O3)C2)nc1` (centres unmarked) [compound 698], the “GBA EC1.5” value stood at 50 µM and the Emax turned out to be 137%.

With `CC1(C2=NOCC(CN3CCCCC3)O2)CCNCC1` (racemic) [compound 568, rac-3-(4-methylpiperidin-4-yl)-5-(piperidin-1-ylmethyl)-5,6-dihydro-1,4,2-dioxazine], the “GBA EC1.5” value is 6 µM and the Emax amounted to 281%.

For `CC(N)C(=O)N1CCC(C2=NOCC(CN3CCCCC3)O2)C1` (racemic) [compound 691, rac-2-amino-1-(3-(5-(piperidin-1-ylmethyl)-5,6-dihydro-1,4,2-dioxazin-3-yl)pyrrolidin-1-yl)propan-1-one], the “GBA EC1.5” value came to 25 µM and the Emax came out at 252%.

Turning to `CN1CC[C@@H]2CN(CC3CON=C(C4(C)CCNCC4)O3)C[C@@H]21` (some centres unmarked) [compound 555], the “GBA EC1.5” value turned out to be 50 µM and the Emax is 114%.

In the case of `N[C@H]1CN[C@H](C2=NOCC(CN3CCCCC3)O2)C1` (some centres unmarked) [compound 597], the “GBA EC1.5” value was found to be 50 µM and the Emax was 106%.
